Blank lines part the entries; values can stand above or below the molecule they belong to.
Key:
[1] = Surface tension of a hanging droplet, Young-Laplace method (curve fitting); format: physicochemical; conditions: for surface tension in 0.3 mg/ml bovine lung surfactant: 1 mM of polyamine, 10 seconds after production of hanging droplet; for surface tension, polyamine alone: 0-10000 msec; for surface tension reduction effect, polyamine alone: without surfactant
Procedure: Surface tension was measured by the Young-Laplace method (curve fitting) using a contact angle meter (B100, manufactured by Asumi Giken, Limited), on a droplet formed at the tip of a 20-gauge straight needle.
Tensiometer: contact angle meter (B100, manufactured by Asumi Giken, Limited)
Surface tension measurement method: Young-Laplace method (curve fitting)
Hanging droplet production method: a maximum size of droplet not to drop was produced at the tip of a 20-gauge straight needle (an autodispenser was used)
Imaging of hanging droplet: imaging was performed using a CCD camera
Bovine lung surfactant: a commercially available bovine lung extract artificial surfactant (Surfacten (trade name), manufactured by Mitsubishi Tanabe Pharma Corporation) was adjusted to a concentration of 30 mg/ml using physiological saline according to the package insert. […] In the drawings, the formulated surfactant solution is indicated by “30 mg/ml surf.”
10-fold diluted bovine lung surfactant: a commercially available bovine lung extract artificial surfactant (Surfacten (trade name), manufactured by Mitsubishi Tanabe Pharma Corporation) was adjusted to a concentration of 3 mg/ml using physiological saline. In the drawings, the formulated surfactant solution is indicated by “3 mg/ml surf.”
100-fold diluted bovine lung surfactant: a commercially available bovine lung extract artificial surfactant (Surfacten (trade name), manufactured by Mitsubishi Tanabe Pharma Corporation) was adjusted to a concentration of 0.3 mg/ml using physiological saline. Pulmonary surfactant was diluted with physiological saline, i.e., the resultant solution mimics the state of surfactant in a lung affected by ARDS. In the drawings, the formulated surfactant solution is indicated by “100-fold diluted bovine lung surfactant,” “0.3-mg/ml bovine lung surfactant,” “0.3 mg/ml surf,” or “ 1/100 Surf.”
1000-fold diluted bovine lung surfactant: a commercially available bovine lung extract artificial surfactant (Surfacten (trade name), manufactured by Mitsubishi Tanabe Pharma Corporation) was adjusted to a concentration of 0.03 mg/ml using physiological saline. In the drawings, the formulated surfactant solution is indicated by “0.03 mg/ml surf.”
Polyamine-containing 100-fold diluted bovine lung surfactant:
The solution was formulated using a commercially available polyamine chloride. […]

lung field = conditions: rat d: washed with physiological saline, then physiological saline containing 5 mM of Spm; applied pressure 20 cm H2O
Procedure: Plain X-ray imaging and X-ray CT imaging were performed, with an air pressure (0 and 20 cm H2O) exerted through a tracheal cannula, on rats that were euthanized after pulmonary alveolar washing or rats that were subjected to pulmonary alveolar washing immediately after euthanization.
A rat a was a control that was not subjected to pulmonary alveolar washing. Specifically, a tracheal cannula was inserted into a rat under general anesthesia, and the rat was euthanized without pulmonary alveolar washing.
A rat b was subjected to pulmonary alveolar washing with physiological saline containing 1 mM of Spm. Specifically, a tracheal cannula was inserted into a rat under general anesthesia, and after the rat was euthanized, 20 ml/kg of a pulmonary alveolar washing solution (physiological saline containing 1 mM of Spm) was injected/suctioned consecutively 5 times within 2 minutes through the tracheal cannula, and the washing solution remaining in the trachea was suctioned out.
A rat c was subjected to pulmonary alveolar washing with physiological saline. Specifically, a tracheal cannula was inserted into a rat under general anesthesia. […]

ARDS model [2] = experiment: Gas exchange dysfunction occurrence rate (P/F ratio<300) after pulmonary alveolar washing; format: in vivo, rat
Procedure: Ventilation was conducted by inverse ratio ventilation without using PEEP. The ventilation was conducted using ambient air (inhaled oxygen concentration FiO2: 0.21) without oxygen administration. The intra-airway pressure and the partial pressure of oxygen in the arterial blood (PaO2) were measured over time. Influence of the polyamine was analyzed, where dynamic lung compliance was used as a measure of the distensibility of the lung, and the P/F ratio<300 was used as a criterion for gas exchange dysfunction. […] Influence of Spm administered to pulmonary alveoli on the rate of occurrence of gas exchange dysfunction was analyzed, where the P/F ratio<300 was used as a criterion for gas exchange dysfunction. […] Cases (death) that death occurred before the measurement times, i.e., arterial blood sampling was not conducted, were counted as the case of occurrence of gas exchange dysfunction.

ARDS model [3] = experiment: Dynamic lung compliance after pulmonary alveolar washing, ventilated ARDS model rat; format: in vivo; conditions: for lung compliance after pulmonary alveolar washing: 20 ml/kg, 5 times within 2 minutes; for time it took to recover to 0.9 (lung compliance before washing set as 1.0): average
Procedure: When the respiratory and circulatory dynamics of the rat were stable under artificial ventilation, an injection/suction operation using 20 ml/kg of a pulmonary alveolar washing solution (physiological saline) through the tracheal cannula was conducted […] consecutively within 2 minutes. […] Thus, an ARDS model whose pulmonary alveoli were washed with physiological saline was produced. The pulmonary alveolar washing operation means production of a respiratory distress syndrome (ARDS) model having decreased lung compliance.
(§1) The above ventilation was conducted by inverse ratio ventilation without using PEEP. The ventilation was conducted using ambient air (inhaled oxygen concentration FiO2: 0.21) without oxygen administration. The intra-airway pressure and the partial pressure of oxygen in the arterial blood (PaO2) were measured over time. Influence of the polyamines was analyzed, where dynamic lung compliance (=a tidal volume/a change in intra-airway pressure) (expression 1) was used as a measure of the distensibility of the lung, and PaO2/FiO2 (P/F ratio)<300 was used as a criterion for gas exchange dysfunction.
(§2) When the respiratory and circulatory dynamics of the rat were stable under artificial ventilation, 20 ml/kg of a pulmonary alveolar washing solution (physiological saline) was injected/suctioned consecutively 5 times within 2 minutes through the tracheal cannula. […] Thus, an ARDS model whose pulmonary alveoli were washed with physiological saline was produced.
as §2, with “(physiological saline containing 0.5 mM of Spm)” for “(physiological saline)”, “with 0.5 mM of Spm” for “with physiological saline”
as §1, with “polyamine” for “polyamines”, “compliance” for “compliance (=a tidal volume/a change in intra-airway pressure) (expression 1)”, “the P/F ratio<300” for “PaO2/FiO2 (P/F ratio)<300”
as §2, with “(physiological saline containing 1 mM of Spm)” for “(physiological saline)”, “with 1 mM of Spm” for “with physiological saline”
When the respiratory and circulatory dynamics of the rat were stable under artificial ventilation, 20 ml/kg of a pulmonary alveolar washing solution (0.3 mg/ml of a bovine lung extract artificial surfactant; the bovine lung extract artificial surfactant was formulated by dissolving Surfacten (trade name), manufactured by Mitsubishi Tanabe Pharma Corporation, in physiological saline to a concentration of 0.3 mg/ml, which is 1/100 of the concentration that is normally for administration to a preterm infant) was injected/suctioned consecutively 5 times within 2 minutes through the tracheal cannula. […] Note that it was confirmed that no polyamines are detected in the bovine lung extract artificial surfactant. […]

lung affected by ARDS = conditions: transairway administration of 5 mM of Spm, 20 ml/kg, 5 times, after first washing with physiological saline
Procedure: Specifically, influence of transairway administration of 5 mM of Spm to an ARDS model animal on lung compliance was analyzed.
A tracheal cannula was inserted into a rat under general anesthesia, and then euthanized. Immediately after that, artificial ventilation was conducted for 30 seconds, and lung compliance before washing that is calculated based on intra-airway pressure was set as 1.0 (“before washing” on the left slide of FIG. 10). Following this, a lung affected by ARDS was produced. Specifically, an injection/suction operation was conducted 5 times consecutively within 2 minutes using 20 ml/kg of physiological saline through the tracheal cannula. After the washing solution remaining in the tracheal cannula was suctioned out, artificial ventilation was conducted for 30 seconds, and the lung compliance of the lung affected by ARDS was calculated and compared with that of the normal lung (“first pulmonary alveolar washing” at the center of FIG. 10). […] After the washing solution remaining in the tracheal cannula was suctioned out, artificial ventilation was conducted for 30 seconds, and the lung compliance calculated based on intra-airway pressure (“second pulmonary alveolar washing” (open column) on the right side of FIG. 10) was compared with that of the lung affected by ARDS. […]

surface tension reduction effect in diluted surfactant environment ([1]; Spd-containing 0.3 mg/ml bovine lung surfactant): has the surface tension reduction effect
SMILES: NCCCCNCCCN [Spd, spermidine]
surface tension reduction effect, polyamine alone [1]: does not have the surface tension reduction effect

surface tension, polyamine alone ([1]; 0.5 mM of Spm without surfactant): 64 mN/m
surface tension of 0.3 mg/ml surf ([1]; presence of 0.5, 1 and 2 mM of Spm): reduced surface tension
SMILES: NCCCNCCCCNCCCN [Spm, spermine]
CT images of lung field (lung field): no wide range of infiltrative shadow was observed
X-ray images of lung field (lung field): the cardiac shadow became clear
gas exchange dysfunction occurrence rate (ARDS model [2]; 20 minutes after washing, 1 mM of Spm): lower than the others
gas exchange dysfunction occurrence rate (ARDS model [2]; 1 hour after washing, Spm-containing physiological saline (0.5 and 1 mM) compared to physiological saline): significantly decreased
lung compliance after pulmonary alveolar washing (ARDS model [3]; physiological saline containing 0.5 mM of Spm): lung compliance subsequently recovered
lung compliance after pulmonary alveolar washing (ARDS model [3]; physiological saline containing 1 mM of Spm): lung compliance subsequently recovered
effect of improving lung compliance, 1 mM versus 0.5 mM of Spm (ARDS model [3]; until 60 minutes after washing): higher for 1 mM of Spm
time it took to recover to 0.9 (lung compliance before washing set as 1.0) (ARDS model [3]; washing with 0.5 mM of Spm): 60 min
time it took to recover to 0.9 (lung compliance before washing set as 1.0) (ARDS model [3]; washing with 1 mM of Spm): 15 min
surface tension reduction effect, polyamine alone [1]: does not have such a surface tension reduction effect
lung compliance after second pulmonary alveolar washing (lung affected by ARDS): improved the lung compliance

Continued, molecule first:

SMILES: CC(=O)NCCCNCCCCN [N1-AcSpd, N1-acetylspermidine]
surface tension in 0.3 mg/ml bovine lung surfactant [1]: reduction in surface tension
surface tension, polyamine alone ([1]; 1 mM without surfactant): 63 mN/m
surface tension reduction effect, polyamine alone [1]: does not have the surface tension reduction effect

SMILES: NCCCCN [Put, putrescine]
surface tension reduction effect in diluted surfactant environment ([1]; Put-containing 0.3 mg/ml bovine lung surfactant, 60 seconds after formation of hanging droplet): observed on several tens of seconds after formation of a hanging droplet
surface tension reduction effect, polyamine alone [1]: does not have the surface tension reduction effect

SMILES: NCCCCCCN [diaminohexane]
surface tension in 0.3 mg/ml bovine lung surfactant [1]: reduction in surface tension
surface tension, polyamine alone ([1]; 1 mM without surfactant): 62 mN/m
surface tension reduction effect, polyamine alone [1]: does not have the surface tension reduction effect
